According to patent US4833079A, “Process for producing 3,7-dihydroxytropolone and antitumor use thereof” (Bristol-Myers Company, priority 1986, dated 1989):
Values after ≈ are worked out from the molar mass of the structure shown. Like-named read-outs stand apart in the source and are kept apart here. One block for each molecule: values may come before it.

Columns and labels:
[1] = system: B16-F10 cells; assay: in vitro cytotoxicity against B16-F10 murine melanoma cells (neutral red, 72 hours); assay type: cell-based; details: for IC50: Mus musculus, read-out: Cytotoxicity vs B16 IC50
Protocol: (§1) BU-3129T (3,7-dihydroxytropolone) and its analogs were tested for in vitro cytotoxicity against logarithmically growing murine melanoma tumor cells in liquid culture. B16-F10 cells (4×10^4 cells) in the enriched MEM (Minimum essential medium (Eagle's)) containing test material solution were planted into wells of 96-well microtiter plates and incubated at 37° C., with 5% CO2 under high humidity for 72 hours. After staining with neutral red, cytotoxicity of test material was determined colorimetrically. The inhibitory effects on macromolecule biosynthesis were examined in cultured L1210 leukemia cells. L1210 cells (5×10^5 cells) were exposed to radioactive precursors (^3 H-thymidine, ^14 C-uridine and ^3 H-leucine) for 60 min after the treatment with test material for 15 min. The incorporated radioactivities into acid-insoluble fractions were measured by using a liquid scintillation counter. The in vivo antitumor activity of BU-3129T was determined in male BDF1 mice against leukemia P388 and melanoma B16. Leukemia P388 and melanoma B 16 were inoculated by the intraperitoneal injection at 10^6 cells and 0.5 ml of a 10% tumor brei per mouse, respectively. Test material was administered to mice intraperitoneally once daily through 1 to 9 days after tumor implantation. Tropolone and mitomycin C were comparatively tested in the experiments.

[2] = system: L1210 leukemia cells; assay: inhibition of macromolecule biosynthesis in cultured L1210 leukemia cells (incorporation of radioactive precursors); assay type: cell-based; details: Mus musculus
Protocol: as §1

[3] = system: leukemia P388; assay type: in vivo, mice; details: for MST / T/C: qd 1→9, ip
Protocol: as §1

[4] = in words; Kirst paper; cited from earlier work
[5] = system: mammalian malignant tumors; assay: inhibitory action against mammalian malignant tumors (summary statement); details: in words
Protocol: as §1

[6] = solubility; assay type: physicochemical
[7] = system: melanoma B16; assay: in vivo antitumor activity against melanoma B16 in male BDF1 mice; details: for antitumor activity against melanoma B16: in words, mice
Protocol: as §1

[8] = L1210, DNA, 3H-thymidine, 60 min after 15 min treatment, read-out: Inhibition of macromolecule biosynthesis vs L1210 IC50, DNA
[9] = L1210, Protein, 3H-leucine, 60 min after 15 min treatment, read-out: Inhibition of macromolecule biosynthesis vs L1210 IC50, Protein
[10] = L1210, RNA, 14C-uridine, 60 min after 15 min treatment, read-out: Inhibition of macromolecule biosynthesis vs L1210 IC50, RNA
[11] = Exp. 1, 0.16 mg/kg/day, qd 1→9, ip
[12] = Exp. 1, 2.5 mg/kg/day, qd 1→9, ip
[13] = Exp. 1, 0.1 mg/kg/day, qd 1→9, ip
[14] = Exp. 1, 0.3 mg/kg/day, qd 1→9, ip
[15] = Exp. 1, 1.0 mg/kg/day, qd 1→9, ip
[16] = Exp. 2, 1.0 mg/kg/day, qd 1→9, ip
[17] = Exp. 2, 3.0 mg/kg/day, qd 1→9, ip
[18] = Exp. 2, 10 mg/kg/day, qd 1→9, ip
[19] = Exp. 2, 30 mg/kg/day, qd 1→9, ip

Compound: O=c1c(O)cccc(O)c1O [BU-3129T, 3,7-dihydroxytropolone]
MST ([3]; 0.16 mg/kg/day): 11.0 days | T/C ([3]; 0.16 mg/kg/day): 105% | MST ([3]; 0.31 mg/kg/day): 11.0 days | T/C ([3]; 0.31 mg/kg/day): 105% | MST ([3]; 0.63 mg/kg/day): 10.0 days | T/C ([3]; 0.63 mg/kg/day): 95% | MST ([3]; 1.3 mg/kg/day): 11.0 days | T/C ([3]; 1.3 mg/kg/day): 105% | MST ([3]; 2.5 mg/kg/day): 10.0 days | T/C ([3]; 2.5 mg/kg/day): 95% | antitumor activity against leukemia P388 ([3]; in words, mice, ip): no activity | potency order in the in vitro cytotoxicity test [1]: most potent | IC50 ([1]; B16-F10, 72 h): 0.04 µg/mL (≈ 0.26 µM) | times more cytotoxic against B16 melanoma than tropolone and the hydroxytropolones compared ([1]; mouse, 4320 min): 10-40 times | antimicrobial activity [4]: possesses antimicrobial activity | IC50 ([2]; L1210, DNA, RNA and protein together, non-specific, read-out: inhibitory effects on DNA, RNA and protein biosynthesis, IC50 values): 9 to 14 µg/mL (≈ 58.4 to 90.8 µM) | IC50 [2, 8]: 9.4 µg/mL (≈ 61 µM) | IC50 [2, 9]: 11 µg/mL (≈ 71.4 µM) | IC50 [2, 10]: 14 µg/mL (≈ 90.8 µM) | inhibitory action against mammalian malignant tumors [5]: marked inhibitory action | solubility ([6]; dimethylformamide): readily soluble | solubility ([6]; dimethylsulfoxide): readily soluble | solubility ([6]; ethanol): slightly soluble | solubility ([6]; methanol): slightly soluble | solubility ([6]; other organic solvents): practically insoluble | solubility ([6]; water): slightly soluble | MST [7, 11]: 16.0 days | T/C [7, 11]: 100% | MST ([7]; Exp. 1, 0.31 mg/kg/day, qd 1→9, ip): 18.0 days | MST ([7]; Exp. 1, 0.63 mg/kg/day, qd 1→9, ip): 23.0 days | MST ([7]; Exp. 1, 1.3 mg/kg/day, qd 1→9, ip): 29.0 days | MST [7, 12]: 12.0 days | T/C [7, 12]: 75% | toxicity ([7]; Exp. 1, 5.0 mg/kg/day, qd 1→9, ip): tox | antitumor activity against melanoma B16 ([7]; ip): significant antitumor activity | Average weight change on day 5 ([7]; mouse, in vivo, ip, 0.16 mg/kg/day): +0.4 g | Average weight change on day 5 ([7]; mouse, in vivo, ip, 0.31 mg/kg/day): +1.2 g | Average weight change on day 5 ([7]; mouse, in vivo, ip, 0.63 mg/kg/day): +1.0 g | Average weight change on day 5 ([7]; mouse, in vivo, ip, 1.3 mg/kg/day): +0.4 g | Average weight change on day 5 ([7]; mouse, in vivo, ip, 2.5 mg/kg/day): -0.8 g

Compound: CO[C@@]12[C@H](COC(N)=O)C3=C(C(=O)C(C)=C(N)C3=O)N1C[C@@H]1N[C@@H]12 [Mitomycin C]
MST ([3]; 0.08 mg/kg/day): 12.0 days | T/C ([3]; 0.08 mg/kg/day): 114% | MST ([3]; 0.16 mg/kg/day): 15.0 days | MST ([3]; 0.31 mg/kg/day): 16.0 days | MST ([3]; 1.3 mg/kg/day): 21.0 days | IC50 ([1]; B16-F10, 72 h): 2 µg/mL (≈ 5.98 µM) | Average weight change on day 5 [7, 13]: +1.0 g | MST [7, 13]: 16.0 days | T/C [7, 13]: 100% | Average weight change on day 5 [7, 14]: +0.4 g | MST [7, 14]: 22.0 days | Average weight change on day 5 [7, 15]: +0.6 g | MST [7, 15]: 27.0 days

Compound: O=c1cccccc1O [Tropolone]
IC50 ([1]; B16-F10 cells, 72 hours): 1.8 µg/mL (≈ 14.7 µM) | potency order in the in vitro cytotoxicity test ([1]; in words): follow by 7-hydroxytropolone, 4,7-dihydroxytropolone, tropolone and 5-hydroxytropolone | IC50 ([2]; L1210, read-out: Inhibition of macromolecule biosynthesis vs L1210 IC50, DNA): 2.2 µg/mL (≈ 18 µM) | IC50 ([2]; L1210, read-out: Inhibition of macromolecule biosynthesis vs L1210 IC50, Protein): 9.9 µg/mL (≈ 81.1 µM) | IC50 ([2]; L1210, read-out: Inhibition of macromolecule biosynthesis vs L1210 IC50, RNA): 20 µg/mL (≈ 164 µM) | Average weight change on day 5 [7, 16]: +2.3 g | MST [7, 16]: 19.0 days | T/C [7, 16]: 112% | Average weight change on day 5 [7, 17]: +2.5 g | MST [7, 17]: 17.5 days | T/C [7, 17]: 103% | Average weight change on day 5 [7, 18]: +3.3 g | MST [7, 18]: 18.0 days | T/C [7, 18]: 106% | Average weight change on day 5 [7, 19]: +2.0 g | MST [7, 19]: 18.0 days | T/C [7, 19]: 106% | antitumor activity against melanoma B16 ([7]; ip): did not show any activity

More lines, main results first:

IC50 [2, 8]: 39 µg/mL (≈ 253 µM) | IC50 [2, 9]: > 100 µg/mL | IC50 [2, 10]: > 100 µg/mL
Compound: O=c1c(O)ccc(O)cc1O [4,7-dihydroxytropolone]
potency order in the in vitro cytotoxicity test [1]: follow by 7-hydroxytropolone, 4,7-dihydroxytropolone, tropolone and 5-hydroxytropolone | IC50 ([1]; B16-F10, 72 h): 0.38 µg/mL (≈ 2.47 µM)

IC50 [2, 8]: > 100 µg/mL | IC50 [2, 9]: 100 µg/mL (≈ 724 µM) | IC50 [2, 10]: > 100 µg/mL
Compound: O=c1ccc(O)ccc1O [5-hydroxytropolone]
potency order in the in vitro cytotoxicity test [1]: follow by 7-hydroxytropolone, 4,7-dihydroxytropolone, tropolone and 5-hydroxytropolone | IC50 ([1]; B16-F10, 72 h): 2.4 µg/mL (≈ 17.4 µM)

IC50 [2, 8]: 21 µg/mL (≈ 152 µM) | IC50 [2, 9]: > 100 µg/mL | IC50 [2, 10]: 41 µg/mL (≈ 297 µM)
Compound: O=c1c(O)ccccc1O [7-hydroxytropolone]
potency order in the in vitro cytotoxicity test [1]: follow by 7-hydroxytropolone, 4,7-dihydroxytropolone, tropolone and 5-hydroxytropolone | IC50 ([1]; B16-F10, 72 h): 0.3 µg/mL (≈ 2.17 µM)
